The values below come from ChEMBL document CHEMBL1641528, “Reverse type I inhibitor of Mycobacterium tuberculosis CYP125A1” (Bioorg Med Chem Lett, 2011).

What is called Kd is the concentration at which binding is half-saturated. A high value points to weaker binding.

This experiment deals with Steroid C26-monooxygenase (Mycobacterium tuberculosis, UniProt P9WPP1, C429L). Kind of experiment: Binding affinity to Mycobacterium tuberculosis H37Rv CYP125A1 C429L mutant expressed in Escherichia coli by titration plot analysis.

The molecule `CC1CCC(C(=O)NC(Cc2c[nH]c3ccccc23)C(=O)Nc2ccncc2)CC1` (stereo unspecified) had a Kd of 1.68 µM.
